Read-outs that look alike come from different tables or passages of the source.
What was measured:
[1] = system: cells from the thymus of normal BALB/c mice; experiment: comitogen-induced thymocyte proliferation procedure (LAF); type: cell-based; details: read-out: LAF IC50
Method: (§1) Immunosuppressive activity was evaluated in an in vitro standard pharmacological test procedure to measure lymphocyte proliferation (LAF) and in two in vivo standard pharmacological test procedures. The first in vivo procedure was a popliteal lymph node (PLN) test procedure which measured the effect of compounds of this invention on a mixed lymphocyte reaction and the second in vivo procedure evaluated the survival time of a pinch skin graft.
The comitogen-induced thymocyte proliferation procedure (LAF) was used as an in vitro measure of the immunosuppressive effects of representative compounds. Briefly, cells from the thymus of normal BALB/c mice are cultured for 72 hours with PHA and IL-1 and pulsed with tritiated thymidine during the last six hours. […] Cells are harvested and incorporated; radioactivity is determined. Inhibition of lymphoproliferation is assessed in percent change in counts per minute from non-drug treated controls. […] (()^3 (H-control thymus cells - H)^3 rapamycin-treated thymus cells)/(()^3 (H-control thymus cells - H)^3 -test compound-treated cells) [formula]

[2] = system: mixed lymphocyte reaction; experiment: popliteal lymph node (PLN) test procedure, in vivo mixed lymphocyte reaction; design: species or system C3H mice; details: for PLN Activity relative to Rapamycin: ratio to rapamycin
Method: as §1
A mixed lymphocyte reaction (MLR) occurs when lymphoid cells from genetically distinct animals are combined in tissue culture. Each stimulates the other to undergo blast transformation which results in increased DNA synthesis that can be quantified by the incorporation of tritiated thymidine. Since stimulating a MLR is a function of disparity at Major Histocompatibility antigens, an in vivo popliteal lymph node (PLN) test procedure closely correlates to host vs. graft disease. Briefly, irradiated spleen cells from BALB/c donors are injected into the right hind foot pad of recipient C3H mice. […] On Day 3 and Day 4, tritiated thymidine is given i.p., b.i.d. On Day 5, the hind popliteal lymph nodes are removed and dissolved, and radioactivity counted. The corresponding left PLN serves as the control for the PLN from the injected hind foot. Percent suppression is calculated using the non-drug treated animals as allogenic control.

[3] = system: pinch skin graft from male DBA/2 donors transplanted to male BALB/c recipients; experiment: pinch skin graft survival time; type: in vivo; details: DBA/2 donors to BALB/c recipients, treated intraperitoneally; mean ± S.D.
Method: as §1
The second in vivo test procedure is designed to determine the survival time of pinch skin graft from male DBA/2 donors transplanted to male BALB/c recipients. The method is adapted from Billingham R.E. and Medawar P.B., J. Exp. Biol. 28:385-402, (1951). Briefly, a pinch skin graft from the donor is grafted on the dorsum of the recipient as a homograft, and an autograft is used as control in the same region. […] Untreated recipients serve as rejection control. The graft is monitored daily and observations are recorded until the graft becomes dry and forms a blackened scab. This is considered as the rejection day. The mean graft survival time (number of days ± S.D.) of the drug treatment group is compared with the control group.

[4] = system: Candida albicans ATCC 38246; experiment: plate test procedure for antifungal activity; type: cell-based; details: strain ATCC 38246
Method: (§2) Antifungal activity of the compounds of this invention was measured against 5 strains of Candida albicans using a plate test procedure for measurement of inhibition. The following represents the typical procedure used. The compound to be tested was placed on sterile dried 1/4" plate disks, and allowed to dry. Agar plates were seeded with fungi and allowed to solidify. The impregnated disks were placed on the seeded Agar surface and incubated for the time required for the particular culture. Results are expressed in MIC (µg/ml) to inhibit growth.
(§3) The compounds of Examples 1 and 4 had the following minimal inhibitory concentrations (50%) against 5 strains of Candida albicans.

Candida albicans 3669 = experiment: plate test procedure for antifungal activity; type: cell-based; details: strain 3669
Method: as §2, §3

[5] = system: Candida albicans ATCC 38247; experiment: plate test procedure for antifungal activity; type: cell-based; details: strain ATCC 38247
Method: as §2, §3

[6] = system: Candida albicans ATCC 38248; experiment: plate test procedure for antifungal activity; type: cell-based; details: strain ATCC 38248
Method: as §2, §3

[7] = system: Candida albicans ATCC 10231; experiment: plate test procedure for antifungal activity; type: cell-based; details: strain ATCC 10231
Method: as §2, §3

[8] = Mus musculus, Thymocyte, 72 h, thymocytes cultured 72 hours with PHA and IL-1, tritiated thymidine incorporation
[9] = thymocytes cultured 72 hours with PHA and IL-1, tritiated thymidine incorporation

Row | Compound | IC50 [1, 8] [nM] | Skin Graft Mean survival days [3] [days] | IC50 [1, 9] [nM] | PLN Activity relative to Rapamycin ([2]; ip) | also measured
1 | CO[C@H]1C[C@@H]2CC[C@@H](C)[C@@](O)(O2)C(=O)C(=O)N2CCCC[C@H]2C(=O)O[C@H]([C@H](C)C[C@@H]2CC[C@@H](O)[C@H](OC)C2)CC(=O)[C@H](C)/C=C(\C)[C@@H](O)[C@@H](OC)C(=O)[C@H](C)C[C@H](C)/C=C/C=C/C=C/1C [Rapamycin, reference compound] |  |  |  |  | IC50 ([1]; Mus musculus, Thymocyte, 72 h): 3.3 nM; Percent suppression (PLN) ([2]; 6 mg/kg, p.o., against non-drug treated allogenic control): 86%
2 | CO[C@H]1C[C@@H]2CC[C@@H](C)[C@@](O)(O2)C(O)C(=O)N2CCCC[C@H]2C(=O)O[C@H]([C@H](C)C[C@@H]2CC[C@@H](O)[C@H](OC)C2)CC(O)[C@H](C)/C=C(\C)[C@@H](O)[C@@H](OC)C(=O)[C@H](C)C[C@H](C)/C=C/C=C/C=C/1C (single isomer, unassigned) [Example 2, 15,27-di(deoxo)-15,27-di(hydroxy)rapamycin] | 0.67 | 9.2 ± 0.41 |  |  | 
3 | CO[C@H]1C[C@@H]2CC[C@@H](C)[C@@](O)(O2)C(O)C(=O)N2CCCC[C@H]2C(=O)O[C@H]([C@H](C)C[C@@H]2CC[C@@H](O)[C@H](OC)C2)CC(O)[C@H](C)/C=C(\C)[C@@H](O)[C@@H](OC)C(=O)[C@H](C)C[C@H](C)/C=C/C=C/C=C/1C (single isomer, unassigned) [Example 3, 15,27-di(deoxo)-15,27-di(hydroxy)rapamycin] |  | 9.5 ± 5.5 | 0.84 | 0.92 ip | 
4 | CO[C@H]1C[C@@H]2CC[C@@H](C)[C@@](O)(O2)C(O)C(=O)N2CCCC[C@H]2C(=O)O[C@H]([C@H](C)C[C@@H]2CC[C@@H](O)[C@H](OC)C2)CC(=O)[C@H](C)/C=C(\C)[C@@H](O)[C@@H](OC)C(=O)[C@H](C)C[C@H](C)/C=C/C=C/C=C/1C (stereo partly shown) [Example 1, 15-Deoxo-15-hydroxyrapamycin] | 0.58 | 9.8 ± 1.0 |  | -0.07 | PLN Activity relative to Rapamycin ([2]; po): -2.47
5 | 33-Deoxy-33-hydroxyrapamycin [Example 4] |  | 10.0 | 4.7 |  | Anti-Candida Activity, Minimal Inhibitory Concentration (50%) [4]: >0.4 µg/mL; Anti-Candida Activity, Minimal Inhibitory Concentration (50%) (Candida albicans 3669): 0.25 µg/mL; Anti-Candida Activity, Minimal Inhibitory Concentration (50%) [5]: 0.03 µg/mL; Anti-Candida Activity, Minimal Inhibitory Concentration (50%) [6]: 0.006 µg/mL; Anti-Candida Activity, Minimal Inhibitory Concentration (50%) [7]: 0.05 µg/mL; PLN Activity relative to Rapamycin ([2]; route not printed in the cell (method: daily p.o. Day 0 to Day 4)): 0.59
